Where two headings read alike, the source gives them in different places.
Tests used:
[1] = Pharmacokinetic evaluation in mice (IV and PO); type: in vivo; conditions: mouse, plasma, CD-1 mice; for half-life: IV, read-out: Half-life T1/2 (IV) (converted); for AUC(0-t): PO, read-out: Area under the concentration-time curve AUC0-last PO; for bioavailability: read-out: Bioavailability F; for clearance: read-out: Clearance CL; for Cmax: read-out: Peak plasma concentration Cmax; for Vd: read-out: Volume of distribution Vdss
Procedure: Test Method 2: Pharmacokinetic Evaluation in Mice
Assay method: Test compounds were mixed with 5% DMSO / 60% polyethylene glycol (PEG400) / 35% water, vortexed and sonicated to obtain a clear 0.2 mg/mL solution, which was then filtered through a microporous membrane before use. Male CD-1 mice weighing 25-35 g were selected. The candidate compound solution was administered intravenously at a dose of 1 mg/kg. The candidate compound solution was orally administered at a dose of 5 mg/kg after fasting. Blood samples (25 µL each) were collected at 0.083, 0.25, 0.5, 1, 2, 4, 8, 12 and 24 hours after administration, and placed into commercial anticoagulant tubes pre-containing EDTA-K2. The tubes were centrifuged for 10 minutes to separate plasma, which was then stored at -60°C. The content of the target compound in plasma samples was determined by LC/MS/MS method, and pharmacokinetic parameters were calculated using Phoenix WinNonlin software (Pharsight, USA).
Tlast: time of the last detection point. AUC0-last: (Area Under the Concentration-Time Curve) refers to the area enclosed by the plasma drug concentration curve and the time axis. F (Bioavailability) is a measure of the rate and extent to which a drug is absorbed into the systemic circulation, serving as a critical indicator for evaluating the degree of drug absorption. […]

[2] = molecular target: T1, hKCNQ2/3 (Homo sapiens, UniProt O43525+O43526); experiment: cell-based
T1 construct: expressed in transfected cells; host or cells: CHO
Source text: Test Method 1: hKCNQ2/3 Thallium Flux Assay
Test Objective: To test the in vitro concentration-response relationship of compounds using FLIPR thallium flux assay in CHO cell lines stably expressing hKCNQ2/3.
According to the split ratio, the cells were transferred to another T-75 flask containing complete cell growth medium. Note: To maintain logarithmic growth, the cells should be kept in a subconfluent monolayer state. Based on the cell doubling time, the cells were passaged every 2-3 days.
• (1) Day 1 - Cell preparation: Cells were digested as described above, and cell density and viability were determined using a Cell Countess. The volume of the single-cell suspension was adjusted with complete cell growth medium. Then, hKCNQ2/3_CHO cells were seeded onto PDL-precoated 384-well plates at a density of approximately 20,000 cells/well (30 µL/well). The plates were then incubated overnight in a 37°C, 5% CO2 humidified air incubator. • (2) Day 2 - Compound preparation: Test compounds were diluted with dimethyl sulfoxide (DMSO) to stock concentrations and stored in a -20°C freezer. A compound addition program was set up on the ECHO liquid handler, and compounds were added to the plates using the ECHO liquid handler. Retigabine (RTG) was used as a positive control at a highest concentration of 100 µM with 3-fold serial dilutions for a total of 9 doses. Buffer containing 5 mM K^+ and 1 mM Tl^+ was added to the plates. Notes: 1) K2SO4 and Tl2SO4 were prepared in 1× chloride-free buffer. Depending on the voltage-gated potassium channel involved, the concentrations of Tl^+ and K^+ should be adjusted. Tl^+ concentration is approximately 0.5-5 mM, and K^+ concentration is approximately 5-30 mM. 2) Each 1 mM solution of K2SO4 and Tl2SO4 contains 2 mM K^+ and Tl^+; the final concentration should be calculated based on the ion concentration. 3) TlCl readily precipitates and a chloride-free buffer is required. • (3) Day 2 -Assay testing: Once the cells reached the desired confluence, the cell assay plates were removed from the incubator. Assay buffer and diluted Tl^+ dye (Molecular Devices # R8222) were prepared. The medium was discarded using a Bravo liquid handler, and 25 µL of Tl^+ dye was added to each well. After 1 hour of incubation, the cell assay plates, composite plates and FLIPR tips were placed in the FLIPR^TETRA (Molecular Devices, USA) for FLIPR detection. After setting up the tips, baseline readings were taken for 60 seconds, then 12.5 µL was added from the composite plate (3×) to the cell assay plate, and data were recorded for at least 5 minutes. • (4) Data processing: Maximum signals were generated by the FLIPR software. […] Data quality control: S/B > 2.00, Z factor > 0.50.
• (1) Day 1 - Cell preparation: Cells were digested as described above, and cell density and viability were determined using a Cell Countess. The volume of the single-cell suspension was adjusted with complete cell growth medium. Then, hKCNQ2/3_CHO cells were seeded onto PDL-precoated 384-well plates at a density of approximately 20,000 cells/well (30 µL/well). The plates were then incubated overnight in a 37°C, 5% CO2 humidified air incubator. • (2) Day 2 - Compound preparation: Test compounds were diluted with dimethyl sulfoxide (DMSO) to stock concentrations and stored in a -20°C freezer. A compound addition program was set up on the ECHO liquid handler, and compounds were added to the plates using the ECHO liquid handler. Retigabine (RTG) was used as a positive control at a highest concentration of 100 µM with 3-fold serial dilutions for a total of 9 doses. Buffer containing 5 mM K^+ and 1 mM Tl^+ was added to the plates. Notes: 1) K2SO4 and Tl2SO4 were prepared in 1× chloride-free buffer. Depending on the voltage-gated potassium channel involved, the concentrations of Tl^+ and K^+ should be adjusted. Tl^+ concentration is approximately 0.5 mM -5 mM, and K^+ concentration is approximately 5 mM -30 mM.

[3] = system: maximal electroshock-induced epilepsy model; experiment: Maximal electroshock-induced epilepsy model, behavioral pharmacodynamics; type: in vivo; conditions: dose 5 mg/kg, oral, one hour before electrical stimulation; male CD-1 mice
Source text: Assay Example 2: Evaluation of the behavioral pharmacodynamics of the test compounds in a maximal electroshock-induced epilepsy model
This study used behavioral tests in male CD-1 mice to investigate the effects of test compounds on acute epileptic seizures behavior induced by maximal electroshock.
Male CD-1 mice (25 to 35g) were used as the experimental animals and fed with standard feed (Beijing Vital River Laboratory Animal Technology Co., Ltd.).
After arriving at the animal facility, the experimental animals needed to acclimatize for at least one week. The mice were observed daily for vital signs, and randomly divided into groups according to their body weights one day before the drug administration. One hour before the electrical stimulation, different dosages of the test compound were orally administered to each group. On the day of the assay, the male CD-1 mice in each group were anesthetized locally at the cornea with 2% lidocaine. Then, silver bipolar electrodes were used to electrically stimulate the cornea of the mice with 18 mA, 60 Hz, a pulse width of 0.6 ms, and a stimulation time of 1 s to induce seizures. Subsequently, the latency of seizures and the duration of limb rigidity in mice after the electrical stimulation were observed, and the protection rate from seizures for each group was statistically analyzed.

T1 sequence (O43526 whole entry): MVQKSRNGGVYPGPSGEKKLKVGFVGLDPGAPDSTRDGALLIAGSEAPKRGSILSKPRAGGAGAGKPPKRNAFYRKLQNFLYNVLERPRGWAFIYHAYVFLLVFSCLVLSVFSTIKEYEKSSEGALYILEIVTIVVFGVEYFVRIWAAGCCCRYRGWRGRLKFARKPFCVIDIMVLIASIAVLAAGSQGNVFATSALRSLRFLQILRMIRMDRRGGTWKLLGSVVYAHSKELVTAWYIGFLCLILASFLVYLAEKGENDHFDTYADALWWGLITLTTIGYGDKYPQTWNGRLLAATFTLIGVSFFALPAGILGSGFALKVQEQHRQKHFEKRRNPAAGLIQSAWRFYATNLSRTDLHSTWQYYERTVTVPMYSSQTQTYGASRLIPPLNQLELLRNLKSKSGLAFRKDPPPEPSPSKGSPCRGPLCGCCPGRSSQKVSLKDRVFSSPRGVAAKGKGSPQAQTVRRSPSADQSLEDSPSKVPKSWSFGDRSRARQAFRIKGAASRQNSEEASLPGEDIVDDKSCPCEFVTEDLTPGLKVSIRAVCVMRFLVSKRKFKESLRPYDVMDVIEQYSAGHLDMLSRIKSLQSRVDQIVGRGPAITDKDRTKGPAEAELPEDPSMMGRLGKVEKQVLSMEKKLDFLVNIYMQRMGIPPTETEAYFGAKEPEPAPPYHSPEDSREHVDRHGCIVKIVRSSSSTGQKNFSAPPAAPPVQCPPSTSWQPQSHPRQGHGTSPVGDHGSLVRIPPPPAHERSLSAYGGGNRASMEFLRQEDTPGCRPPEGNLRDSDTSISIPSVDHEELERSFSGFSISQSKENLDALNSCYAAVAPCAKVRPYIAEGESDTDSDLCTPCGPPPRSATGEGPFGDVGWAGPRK
T1 sequence (O43525 whole entry): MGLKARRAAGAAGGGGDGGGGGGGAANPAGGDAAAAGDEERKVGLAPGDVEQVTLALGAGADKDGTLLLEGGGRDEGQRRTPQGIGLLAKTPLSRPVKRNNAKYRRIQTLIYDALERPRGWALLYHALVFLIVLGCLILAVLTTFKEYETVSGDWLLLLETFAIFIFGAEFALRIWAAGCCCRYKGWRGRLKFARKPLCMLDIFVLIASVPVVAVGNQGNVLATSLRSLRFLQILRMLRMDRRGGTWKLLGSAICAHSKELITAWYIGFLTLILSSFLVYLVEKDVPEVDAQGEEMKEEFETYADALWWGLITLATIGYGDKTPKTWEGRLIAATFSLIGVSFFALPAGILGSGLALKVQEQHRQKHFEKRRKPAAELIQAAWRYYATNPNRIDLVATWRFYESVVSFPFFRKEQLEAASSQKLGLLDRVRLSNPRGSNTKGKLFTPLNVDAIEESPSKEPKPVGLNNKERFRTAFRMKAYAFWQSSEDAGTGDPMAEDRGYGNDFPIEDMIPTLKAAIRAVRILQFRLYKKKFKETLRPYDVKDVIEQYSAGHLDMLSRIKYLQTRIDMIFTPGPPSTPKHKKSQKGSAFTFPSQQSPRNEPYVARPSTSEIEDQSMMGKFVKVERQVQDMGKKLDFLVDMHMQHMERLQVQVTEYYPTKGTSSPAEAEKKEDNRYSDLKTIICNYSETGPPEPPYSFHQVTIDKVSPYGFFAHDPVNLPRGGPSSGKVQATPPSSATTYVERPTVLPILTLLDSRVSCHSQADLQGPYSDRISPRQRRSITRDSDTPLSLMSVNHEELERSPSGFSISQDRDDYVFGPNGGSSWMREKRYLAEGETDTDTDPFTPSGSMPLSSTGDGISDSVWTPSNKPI

Row | Compound | half-life ([1]; dose IV:0.5, PO:2 mg/kg) [h] | half-life ([1]; dose IV:1, PO:5 mg/kg) [h] | AUC(0-t) ([1]; dose IV:0.5, PO:2 mg/kg) [µM·h] | AUC(0-t) ([1]; dose IV:1, PO:5 mg/kg) [µM·h] | bioavailability ([1]; dose IV:0.5, PO:2 mg/kg) [%] | clearance ([1]; dose IV:0.5, PO:2 mg/kg) [mL/min/kg] | Cmax ([1]; dose IV:0.5, PO:2 mg/kg) [nM] | Vd ([1]; dose IV:0.5, PO:2 mg/kg) [L/kg] | bioavailability ([1]; dose IV:1, PO:5 mg/kg) [%] | clearance ([1]; dose IV:1, PO:5 mg/kg) [mL/min/kg] | Cmax ([1]; dose IV:1, PO:5 mg/kg) [nM] | Vd ([1]; dose IV:1, PO:5 mg/kg) [L/kg] | EC50 [2] [nM] | Seizure incidence (%) [3] [%]
1 | Cc1c(NC(=O)CC(C)(C)C)n(C)c2cc(Nc3ccc(F)cc3)ccc12 [Compound 1] | 1.83 | 1.63 | 2.04 | 4.57 | 79.6 | 34.8 | 322 | 5.16 | 83.9 | 41.8 | 596 | 5.06 | 960 | 16.7
2 | Cc1c(NC(=O)CC(C)(C)C)n(C)c2cc(Nc3ccc(C(F)(F)F)cc3)ccc12 [Compound 5] | 5.9 | – | – | – | 64 | 9.1 | – | 3.97 | – | – | – | – | 520 | 16.7
3 | Cc1nc(Nc2ccc3c(C)c(NC(=O)CC(C)(C)C)n(C)c3c2)ccc1F [Compound 41] | – | 0.7 | – | 21.4 | – | – | – | – | 78.2 | 8.9 | 4580 | 0.6 | 290 | 0
